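Grown in 96-well plates, cells were treated for 48 hours with each compound at five concentrations. Insufficient inhibition: endpoint recorded as highest concentration tested. GI50: concentration for 50% inhibition of growth. At the TGI there is no net growth.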
What was measured:
Assay in all cases: inhibition of tumour cell growth, NCI panel, 48 h
NCI-H23 lung = tested on: NCI-H23 lung
A498 renal = tested on: A498 renal
COLO 205 colon = tested on: COLO 205 colon
HCC-2998 colon = tested on: HCC-2998 colon
MDA-MB-231 breast = tested on: MDA-MB-231 breast
SF-539 CNS = tested on: SF-539 CNS
SNB-75 CNS = tested on: SNB-75 CNS
SW-620 colon = tested on: SW-620 colon
HS 578T breast = tested on: HS 578T breast
HCT-116 colon = tested on: HCT-116 colon
SR leukemia = tested on: SR leukemia
BT-549 breast = tested on: BT-549 breast
CAKI-1 renal = tested on: CAKI-1 renal
CCRF-CEM leukemia = tested on: CCRF-CEM leukemia
HCT-15 colon = tested on: HCT-15 colon
MALME-3M melanoma = tested on: MALME-3M melanoma
NCI-H226 lung = tested on: NCI-H226 lung
SF-295 CNS = tested on: SF-295 CNS
DU-145 prostate = tested on: DU-145 prostate
PC-3 prostate = tested on: PC-3 prostate
HL-60(TB) leukemia = tested on: HL-60(TB) leukemia
MDA-MB-435 = tested on: MDA-MB-435
U251 CNS = tested on: U251 CNS
UACC-257 melanoma = tested on: UACC-257 melanoma
HOP-92 NSCLC = tested on: HOP-92 NSCLC
OVCAR-8 ovarian = tested on: OVCAR-8 ovarian
A549 NSCLC = tested on: A549 NSCLC
OVCAR-5 ovarian = tested on: OVCAR-5 ovarian
T-47D breast = tested on: T-47D breast
TK-10 renal = tested on: TK-10 renal
NCI-H460 lung = tested on: NCI-H460 lung
UACC-62 melanoma = tested on: UACC-62 melanoma
RPMI-8226 leukemia = tested on: RPMI-8226 leukemia
OVCAR-3 ovarian = tested on: OVCAR-3 ovarian
M14 melanoma = tested on: M14 melanoma
SK-MEL-5 melanoma = tested on: SK-MEL-5 melanoma
MOLT-4 leukemia = tested on: MOLT-4 leukemia
NCI-H522 lung = tested on: NCI-H522 lung
IGROV1 ovarian = tested on: IGROV1 ovarian
NCI/ADR-RES ovarian = tested on: NCI/ADR-RES ovarian
SNB-19 CNS = tested on: SNB-19 CNS
786-0 renal = tested on: 786-0 renal
SK-MEL-28 melanoma = tested on: SK-MEL-28 melanoma
HT29 colon = tested on: HT29 colon
HOP-62 NSCLC = tested on: HOP-62 NSCLC
K-562 leukemia = tested on: K-562 leukemia
SK-MEL-2 melanoma = tested on: SK-MEL-2 melanoma
SF-268 CNS = tested on: SF-268 CNS
SK-OV-3 ovarian = tested on: SK-OV-3 ovarian
ACHN renal = tested on: ACHN renal
OVCAR-4 ovarian = tested on: OVCAR-4 ovarian
RXF 393 renal = tested on: RXF 393 renal
KM12 colon = tested on: KM12 colon
SN12C renal = tested on: SN12C renal
LOX IMVI melanoma = tested on: LOX IMVI melanoma
UO-31 renal = tested on: UO-31 renal
MCF7 breast = tested on: MCF7 breast

Q: What does the source list for Cn1cc(C2=C(c3cn(C)c4cc(N)ccc34)C(=O)NC2=O)c2ccccc21?
A: GI50 (NCI-H23 lung): 3.72 µM; TGI (NCI-H23 lung): 11.8 µM; GI50 (A498 renal): 0.944 µM; TGI (A498 renal): 7.54 µM; GI50 (COLO 205 colon): 1.63 µM; TGI (COLO 205 colon): 9.59 µM; GI50 (HCC-2998 colon): 1.5 µM; TGI (HCC-2998 colon): > 25 µM; GI50 (MDA-MB-231 breast): 4.09 µM; TGI (MDA-MB-231 breast): 16.2 µM; GI50 (SF-539 CNS): 0.568 µM; TGI (SF-539 CNS): 2.27 µM; GI50 (SNB-75 CNS): 0.252 µM; TGI (SNB-75 CNS): 2.09 µM; GI50 (SW-620 colon): 1.5 µM; TGI (SW-620 colon): > 25 µM; GI50 (HS 578T breast): 1.06 µM; TGI (HS 578T breast): > 19.6 µM; GI50 (HCT-116 colon): 1.28 µM; TGI (HCT-116 colon): > 25 µM; GI50 (SR leukemia): 0.364 µM; TGI (SR leukemia): 4.02 µM; GI50 (BT-549 breast): 4.32 µM; TGI (BT-549 breast): 14.6 µM; GI50 (CAKI-1 renal): 1.39 µM; TGI (CAKI-1 renal): > 15 µM; GI50 (CCRF-CEM leukemia): 1.02 µM; TGI (CCRF-CEM leukemia): > 11.2 µM; GI50 (HCT-15 colon): 1.04 µM; TGI (HCT-15 colon): > 21.6 µM; GI50 (MALME-3M melanoma): 11 µM; TGI (MALME-3M melanoma): > 22.3 µM; GI50 (NCI-H226 lung): 3.59 µM; TGI (NCI-H226 lung): 17.2 µM; GI50 (SF-295 CNS): 0.909 µM; TGI (SF-295 CNS): > 25 µM; GI50 (DU-145 prostate): 1.84 µM; TGI (DU-145 prostate): 16.8 µM; GI50 (PC-3 prostate): 2.92 µM; TGI (PC-3 prostate): > 20.6 µM; GI50 (HL-60(TB) leukemia): 1.1 µM; TGI (HL-60(TB) leukemia): 5.52 µM; GI50 (MDA-MB-435): 0.112 µM; TGI (MDA-MB-435): > 21.2 µM; GI50 (U251 CNS): 1.41 µM; TGI (U251 CNS): 10.2 µM; GI50 (UACC-257 melanoma): 5.89 µM; TGI (UACC-257 melanoma): 18.1 µM; GI50 (HOP-92 NSCLC): 5.86 µM; TGI (HOP-92 NSCLC): > 18.9 µM; GI50 (OVCAR-8 ovarian): 4.18 µM; TGI (OVCAR-8 ovarian): > 25 µM; GI50 (A549 NSCLC): 3.09 µM; TGI (A549 NSCLC): > 25 µM; GI50 (OVCAR-5 ovarian): 8.13 µM; TGI (OVCAR-5 ovarian): > 21.9 µM; GI50 (T-47D breast): 5.7 µM; TGI (T-47D breast): > 21.6 µM; GI50 (TK-10 renal): 4.03 µM; TGI (TK-10 renal): 14.3 µM; GI50 (NCI-H460 lung): 1.4 µM; TGI (NCI-H460 lung): > 25 µM; GI50 (UACC-62 melanoma): 3.44 µM; TGI (UACC-62 melanoma): 8.39 µM; GI50 (RPMI-8226 leukemia): 2.92 µM; TGI (RPMI-8226 leukemia): 11.6 µM; GI50 (OVCAR-3 ovarian): 0.721 µM; TGI (OVCAR-3 ovarian): > 12.2 µM; GI50 (M14 melanoma): 4.96 µM; TGI (M14 melanoma): > 25 µM; GI50 (SK-MEL-5 melanoma): 1.09 µM; TGI (SK-MEL-5 melanoma): 5.76 µM; GI50 (MOLT-4 leukemia): 2.26 µM; TGI (MOLT-4 leukemia): > 18.7 µM; GI50 (NCI-H522 lung): 1.36 µM; TGI (NCI-H522 lung): 8.53 µM; GI50 (IGROV1 ovarian): 6.05 µM; TGI (IGROV1 ovarian): 17.6 µM; GI50 (NCI/ADR-RES ovarian): 4.58 µM; TGI (NCI/ADR-RES ovarian): 24.2 µM; GI50 (SNB-19 CNS): 5.45 µM; TGI (SNB-19 CNS): 24.3 µM; GI50 (786-0 renal): 3.42 µM; TGI (786-0 renal): > 25 µM; GI50 (SK-MEL-28 melanoma): 4.71 µM; TGI (SK-MEL-28 melanoma): 18.4 µM; GI50 (HT29 colon): 1.07 µM; TGI (HT29 colon): 6.8 µM; GI50 (HOP-62 NSCLC): 3.86 µM; TGI (HOP-62 NSCLC): > 25 µM; GI50 (K-562 leukemia): 0.396 µM; TGI (K-562 leukemia): > 23.8 µM; GI50 (SK-MEL-2 melanoma): 4.26 µM; TGI (SK-MEL-2 melanoma): 10.6 µM; GI50 (SF-268 CNS): 3.67 µM; TGI (SF-268 CNS): 13.7 µM; GI50 (SK-OV-3 ovarian): 2.25 µM; TGI (SK-OV-3 ovarian): > 25 µM; GI50 (ACHN renal): 2.59 µM; TGI (ACHN renal): 12.1 µM; GI50 (OVCAR-4 ovarian): 4.41 µM; TGI (OVCAR-4 ovarian): 17.4 µM; GI50 (RXF 393 renal): 1.84 µM; TGI (RXF 393 renal): 7.59 µM; GI50 (KM12 colon): 1.45 µM; TGI (KM12 colon): 11.8 µM; GI50 (SN12C renal): 3.44 µM; TGI (SN12C renal): 17 µM; GI50 (LOX IMVI melanoma): 3.1 µM; TGI (LOX IMVI melanoma): > 25 µM; GI50 (UO-31 renal): 2.54 µM; TGI (UO-31 renal): 15.4 µM; GI50 (MCF7 breast): 0.696 µM; TGI (MCF7 breast): > 16.8 µM
